From the supplement of paper PMC10307832

What was measured:
Test in all cases: relative viability (nuclei count vs DMSO), 5 days (fraction); higher = more cells survive
TGX 221 + Navitoclax = compound: CC1=CN2C(=O)C=C(N=C2C(=C1)C(C)NC3=CC=CC=C3)N4CCOCC4 [TGX 221] + CC1(C)CCC(c2ccc(Cl)cc2)=C(CN2CCN(c3ccc(C(=O)NS(=O)(=O)c4ccc(N[C@H](CCN5CCOCC5)CSc5ccccc5)c(S(=O)(=O)C(F)(F)F)c4)cc3)CC2)C1 [Navitoclax] (partner 0.5 µM)
In short: (§1)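 Lung cancer cell lines in 1536-well plates were dosed by pin tool the day after seeding, either with one drug alone or with a fixed anchor-drug dose plus five library-drug doses (not always all listed) in √10 steps. After 5 days, cells were fixed and their nuclei stained in one step (final 0.05% Triton X-100, 1% formaldehyde, 1 ug/ml Hoechst), then counted on 4× images. Relative viability is the nuclei count in treated wells divided by that in vehicle wells. Values are medians of duplicate plates.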

TGX 221 + Palbociclib = compound: CC1=CN2C(=O)C=C(N=C2C(=C1)C(C)NC3=CC=CC=C3)N4CCOCC4 [TGX 221] + CC(=O)c1c(C)c2cnc(Nc3ccc(N4CCNCC4)cn3)nc2n(C2CCCC2)c1=O [Palbociclib] (partner 0.5 µM)
In short: as §1

[1] = compound: C1=CC=C(C(=C1)C2=CC=C(C=C2)C3=CSC4=C3C(=C(C(=O)N4)C#N)O)O + CC1(C)CCC(c2ccc(Cl)cc2)=C(CN2CCN(c3ccc(C(=O)NS(=O)(=O)c4ccc(N[C@H](CCN5CCOCC5)CSc5ccccc5)c(S(=O)(=O)C(F)(F)F)c4)cc3)CC2)C1 [Navitoclax] (partner 0.5 µM)
In short: as §1

[2] = compound: O=C(CCCCCCNC(=O)c1cnc(N(c2ccccc2)c2ccccc2)nc1)NO [Ricolinostat] + Nc1nc2[nH]cc(CCc3ccc(C(=O)N[C@@H](CCC(=O)O)C(=O)O)cc3)c2c(=O)[nH]1 [Pemetrexed] (partner 0.2 µM)
In short: as §1

Cell Line | relative viability (TGX 221 + Navitoclax; first compound 0.08 µM) | relative viability (TGX 221 + Navitoclax; first compound 0.253 µM) | relative viability (TGX 221 + Navitoclax; first compound 0.8 µM) | relative viability (TGX 221 + Navitoclax; first compound 2.53 µM) | relative viability (TGX 221 + Navitoclax; first compound 8 µM) | relative viability (TGX 221 + Palbociclib; first compound 0.08 µM) | relative viability (TGX 221 + Palbociclib; first compound 0.253 µM) | relative viability (TGX 221 + Palbociclib; first compound 0.8 µM) | relative viability (TGX 221 + Palbociclib; first compound 2.53 µM) | relative viability (TGX 221 + Palbociclib; first compound 8 µM) | relative viability ([1]; first compound 0.08 µM) | relative viability ([1]; first compound 0.253 µM) | relative viability ([1]; first compound 0.8 µM) | relative viability ([1]; first compound 2.53 µM) | relative viability ([1]; first compound 8 µM) | relative viability ([2]; first compound 0.08 µM) | relative viability ([2]; first compound 0.253 µM) | relative viability ([2]; first compound 0.8 µM) | relative viability ([2]; first compound 2.53 µM)
NCI-H322M | 1.13 | 1.19 | 1.14 | 0.911 | 1.33 | 0.492 | 0.484 | 0.478 | 0.459 | 0.388 | 1.35 | 1.24 | 1.03 | 1.32 | 1.09 | 0.61 | 0.607 | 0.639 | 0.646
NCI-H441 | 0.494 | 0.529 | 0.599 | 0.998 | 0.797 | 0.239 | 0.203 | 0.217 | 0.185 | 0.21 | – | 0.644 | – | 0.837 | 0.604 | 0.267 | 0.25 | 0.289 | 0.272
NCI-H460 | 1.04 | 1.02 | 1.24 | 1.19 | 1.07 | 0.101 | 0.179 | 0.159 | 0.228 | 0.168 | – | 0.414 | 1.43 | 1.31 | 0.271 | 0.0618 | 0.0585 | 0.0722 | 0.0727
NCI-H520 | 1.24 | 0.944 | 1.03 | 0.756 | 0.648 | 0.156 | 0.139 | 0.146 | 0.166 | 0.132 | 1.08 | 1.15 | 1.2 | 1.11 | 0.891 | – | 0.762 | 0.744 | 0.628
NCI-H647 | 1.08 | 0.781 | 0.943 | 0.88 | 0.622 | 0.296 | 0.297 | 0.283 | 0.232 | 0.275 | 0.877 | 1.16 | 1.24 | 1.21 | 0.741 | 0.192 | 0.18 | 0.174 | 0.134
NCI-H838 | 1.08 | 0.977 | 1.05 | 0.888 | 0.779 | 0.213 | 0.187 | 0.19 | 0.188 | 0.179 | 1.16 | 1.07 | 1.22 | 1.12 | 0.979 | 0.236 | 0.273 | 0.259 | 0.208
NCI-H1355 | 0.88 | 0.747 | 0.764 | 0.598 | 0.707 | 0.366 | 0.348 | 0.372 | 0.338 | 0.302 | 1.1 | 1.02 | 0.935 | 0.957 | 0.777 | 0.916 | 1.07 | 0.95 | 1.01
NCI-H1395 | 1.02 | 0.907 | 0.986 | 0.957 | 0.763 | 0.609 | 0.537 | 0.51 | 0.467 | 0.487 | – | 1.21 | 1.15 | 1.05 | 1.12 | – | 0.801 | 0.804 | 0.746
NCI-H1437 | 1.05 | 1.07 | 1.11 | 1.07 | 0.893 | 0.294 | 0.317 | 0.324 | 0.276 | 0.295 | 1.06 | 1.16 | 1.18 | 1.13 | 0.881 | 0.329 | 0.32 | 0.276 | 0.263
NCI-H1650 | 1.23 | 1.14 | 1.27 | 1.04 | 0.456 | 0.305 | 0.298 | 0.294 | 0.257 | 0.191 | – | 1.25 | 1.23 | 1.15 | 0.865 | 0.379 | 0.403 | 0.337 | 0.349
NCI-H1651 | 0.977 | 0.964 | 0.948 | 0.734 | 0.733 | 0.525 | 0.465 | 0.505 | 0.489 | 0.44 | 1.07 | 0.941 | 1.05 | 1.1 | 0.642 | 0.463 | 0.571 | 0.55 | 0.552
NCI-H1666 | 0.935 | 0.759 | 0.749 | 0.844 | 0.927 | 0.679 | 0.599 | 0.638 | 0.667 | 0.674 | 0.946 | 1.03 | 0.876 | 0.944 | 0.879 | 0.805 | 0.841 | 0.867 | 0.871
NCI-H1734 | 0.809 | 0.747 | 0.784 | 0.698 | 0.765 | 0.235 | 0.332 | 0.351 | 0.317 | 0.289 | 0.793 | 0.979 | 0.886 | 0.972 | 0.492 | 0.446 | 0.414 | 0.448 | 0.473
NCI-H1755 | 0.948 | 0.949 | 0.891 | 0.606 | 0.444 | 0.36 | 0.422 | 0.385 | 0.421 | 0.436 | 1.03 | 1.13 | 0.98 | 1.08 | 0.78 | 0.405 | 0.386 | 0.343 | 0.418
NCI-H1793 | 0.405 | 0.328 | 0.286 | 0.283 | 0.176 | 0.282 | 0.277 | 0.271 | 0.273 | 0.223 | 0.406 | 0.753 | 0.41 | 0.443 | 0.359 | 0.603 | 0.76 | 0.815 | 0.811
NCI-H1915 | 0.788 | 0.765 | 0.779 | 0.79 | 0.775 | 0.491 | 0.497 | 0.536 | 0.498 | 0.473 | 0.811 | 0.769 | 0.83 | 0.826 | 0.771 | 0.399 | 0.416 | 0.458 | 0.397
NCI-H1944 | 0.981 | 1.02 | 1 | 0.943 | 0.841 | – | 0.327 | 0.332 | 0.277 | 0.245 | 1.05 | 1.03 | 1.02 | 1.1 | 1.08 | 0.565 | 0.588 | 0.565 | 0.39
